The subject of one assay is MCF7 cells. Description: CellTiter-Glo Luminescent Cell Viability Assay on ER-positive breast cancer MCF-7 cells in vitro. The class given is cell-based. The conditions noted are these: Homo sapiens, 72 hours, read-out: Inhibition of viability of breast cancer cells IC50, MCF7 cells. As to the method: B: CellTiter-Glo® Luminescent Cell Viability Assay on ER-Positive Breast Cancer MCF-7 Cells In Vitro:
MCF7 cells from ATCC were maintained in an Dulbecco's modified Eagle medium (DMEM), and 10% fetal calf serum at 37 in a 5% CO2 atmosphere. Cells were placed at a density of 6×10^3 cells per well in a 96-well plate. MCF 7 cells were treated with a test compound dissolved in DMSO at the concentration of 0, 0.3 μM, 0.5 μM, 1 μM, 2 μM, 3 μM, 5 μM, 10 μM, 20 μM, 30 μM, 50 μM and 100 μM for 72 hours. Treated cells were examined through CellTiter-Glo® Luminescent Cell Viability Assay Kit (Promega), and luminescence were recorded with Envision.
For orientation: Cellular ATP, detected with luciferase, serves as a proxy for viable cell number.

Assay [1] has as its system gastric cancer BGC-823 cells. Description: Inhibition of gastric cancer cell BGC-823 in vitro by MTT method. The class given is cell-based. As to conditions: Homo sapiens; BGC-823, MTT, 72 hours, FIG. 4; read-out: IC50, in vitro inhibition on cell line BGC-823 of gastric cancer. As to the method: A: Inhibition of Gastric Cancer Cell BGC-823 In Vitro by the Compounds by MTT Method
The gastric cancer BGC-823 cells were subseeded in a 96-well culture plate at a concentration of 3×10^3 cells/well and maintained in phenol red free DMEM medium containing 2.5% CS-FBS at 37° C. in a 5% CO2 atmosphere. BGC-823 cells were treated with a test compound dissolved in DMSO at the concentration of 0, 1, 2, 4, 8, 10 and 20 μM for 72 hours. OD value was tested by MTT method, and the inhibition percentage was calculated.

Assay [2] has as its system human breast cancer BCAP-37 xenograft tumor. Description: Inhibition of growth of human breast cancer BCAP-37 cells xenograft tumor in nude mice. It is filed as in vivo. The conditions noted are these: BCAP-37 tumor bearing nude mice, 0.7 mg/mouse/day, 20 days of continuous administration, FIG. 9. As to the method: Nude mice with breast cancer xenografts were treated with the test compounds to test their effect on inhibiting tumor growth. Tumor tissues were taken from nude mice bearing BCAP-37 breast cancer and cut into small pieces. Several pieces of the tumor tissues were implanted into the armpit under the right front limb of female nude mice. After the implantation, the mice are fed with E2β solution once a day at the dosage of 7 μg per mouse for 6 days to stimulate growth of tumor in the experiment mice. Starting on the seventh day, the mice were intragastric administered with the test solution containing the compounds and corn oil at the dosage of 35 mg/kg. Tamoxifen was used as a positive control. Corn oil was used as a negative control. The test solution was prepared by dispersing test compound in corn oil solution. (20 mg/mL). […] Then the mice were sacrificed and the tumor tissues were dissected and weighed. The tumor growth inhibition rate was a percentage calculated using the formula: tumor growth inhibition rate=(average weight of the tumor in the negative control−average weight of the tumor treated with test compound)/average weight of the tumor in the negative control.
For orientation: Xenograft models place foreign cells or tissue in a host animal.

In assay [3] the test system is pancreatic cancer PANC-1 cells. Nature of the assay: Inhibition of pancreatic cancer cells PANC-1 in vitro by MTT method. The conditions noted are these: Homo sapiens; PANC-1, MTT, 72 hours, FIG. 7; read-out: IC50, in vitro inhibition on cell line PANC-1 of pancreatic cancer. The class given is cell-based. As to the method: A: Inhibition of Pancreatic Cancer Cells PANC-1 In Vitro by the Compounds by MTT Method
The pancreatic cancer PANC-1 cells were subseeded in a 96-well culture plate at a concentration of 3×10^3 cells/well and maintained in phenol red free 1640 medium containing 2.5% CS-FBS at 37° C. in a 5% CO2 atmosphere. PANC-1 cells were treated with a test compound dissolved in DMSO at the concentration of 0, 1, 2, 4, 8, 10 and 20 μM for 72 hours. OD value was tested by MTT method, and the inhibition percentage was calculated.

In assay [4] the test system is prostate cancer cells PC-3. Description: Inhibition of prostate cancer cells PC-3 in vitro by MTT method. It is filed as cell-based. As to conditions: PC-3, MTT, 72 hours, FIG. 8; read-out: IC50, in vitro inhibition on cell line PC-3 of prostatic cancer. The method, then: A: Inhibition of Prostate Cancer Cells PC-3 In Vitro by the Compounds by MTT Method
The […] cancer PC-3 cells were subseeded in a 96-well culture plate at a concentration of 3×10^3 cells/well and maintained in medium containing 10% F12K fetal bovine serum. PC-3 cells were treated with the test compound dissolved in DMSO at the concentration of 0, 1, 2, 4, 8, 10 and 20 μM for 72 hours. OD value was tested by MTT method, and the inhibition percentage was calculated.
In general terms: Tetrazolium assays rely on reduction of a dye to a coloured formazan, in cell work by metabolically active cells.

For the next assay, the system named is Daudi cells. Description: Inhibition of human B lymphoma Daudi cells by CellTiter-Glo Luminescent Assay in vitro. The class given is cell-based. As to conditions: Homo sapiens, 72 hours, read-out: Inhibition of viability of cells in vitro IC50, Daudi cells. The method, then:
A: Inhibition of Human B Lymphoma Daudi Cells by CellTiter-Glo® Luminescent Assay In Vitro
The Human B Lymphoma Daudi cells from ATCC were maintained in IMDM and 10% fetal calf serum at 37° C. in a 5% CO2 atmosphere. The cells were subseeded in a 96-well culture plate at a concentration of 6×10^3 cells/well. Human B Lymphoma Daudi cells were treated with a test compound dissolved in DMSO at the concentration of 0, 0.3 μM, 0.5 μM, 1 μM, 2 μM, 3 μM, 10 μM, 20 μM, 30 μM, 50 μM and 100 μM for 72 hours. Treated cells were examined by CeliTiter-Glo® Luminescent Cell Viability Assay Kit (Promega), and luminescence were recorded with Envision.

The test system of the next assay is HL-60 cells. Nature of the assay: Inhibition of growth of acute myeloblastic leukemia HL-60 cells by MTT method. The class given is cell-based, human. The conditions noted are these: Homo sapiens, 10^−6M, 72 hours, read-out: The inhibition percentage of cell proliferation by the compounds with a concentration of 10^−6M, HL-60 cells. The method, then:
A: Inhibition of Growth of Acute Myeloblastic Leukemia HL-60 Cells by the Compounds Detected by MTT Method
The acute myeloblastic leukemia HL-60 cells from ATCC were maintained in IMDM and 10% fetal calf serum at 37° C. in a 5% CO2 atmosphere. The cells were subseeded in a 96-well culture plate at a concentration of 6×10^3 cells/well. HL-60 cells were treated with a test compound dissolved in DMSO at the concentration of 0, 10^−4M, 10^−5M, 10^−6M, 10^−7M, 10^−8M for 72 hours. OD value was tested by MTT method, and the inhibition ratio was calculated.

In the next assay the test system is lung cancer H460 cells. Description: Inhibition of lung cancer cells H460 in vitro by MTT method. The class given is cell-based. As to conditions: Homo sapiens, NCI-H460, 72 hours, FIG. 5, read-out: IC50, in vitro inhibition on cell line H460 of lung cancer. The method, then:
A: Inhibition of Lung Cancer Cells H460 In Vitro by the Compounds by MTT Method
The lung cancer H460 cells were subseeded in a 96-well culture plate at a concentration of 4.0×10^3 cells/well and maintained in phenol red free medium containing 2.5% CS-FBS at 37° C. in a 5% CO2 atmosphere. H460 cells were treated with a test compound dissolved in DMSO at the concentration of 0, 1, 2, 4, 8, 10 and 20 μM for 72 hours. OD value was tested by MTT method, and the inhibition percentage was calculated.

pIC50: −log10 of the molar value.

With `CC(C)=CCc1c(O)cc(O)c2c(=O)c(O)c(-c3ccc(C(F)(F)F)cc3)oc12` [Compound 1, 2-(4-trifluoromethylphenyl)-3,5,7-trihydroxy-8-(3-methyl-2-buten-1-yl)-4H-chromen-4-one], the pIC50 (as a rule, the negative decadic logarithm of the IC50, by convention in mol/L) is 5.70 with MCF7 cells; 5.40 to 6.00 in assay [1]; 5.40 to 6.00 in assay [3]; 5.40 to 6.00 in assay [4]; 6.08 with Daudi cells; 5.40 to 6.00 in the assay with lung cancer H460 cells. The “average tumor weight, inhibition on the tumors” value in assay [2] is recorded as “inhibition of compound on the tumors”. In the assay with HL-60 cells, the inhibition at 1 µM worked out at 60.7%.

The values are drawn from patent US9221781B2, “Synthesis of polyhydroxy chromenone compounds and their anti-tumor effects” (BEIJING SHENOGEN PHARMA GROUP LTD., priority 2012, dated 2015).
